Measured values: patent publication US20240025922A1, “TETRAHYDROPYRIDO[3,4-d]PYRIMIDINES AS HPK1 INHIBITORS” (Merck Patent GmbH, priority 2022, published 2024)

What was measured:
[1] = target: HPK1 (SLP76 phosphorylation at Ser376 in Jurkat and EL-4 cells) (Homo sapiens, UniProt Q92918); format: cell-based; conditions: αCD3/αCD28 Dynabeads stimulated cells, pSLP76 (Ser376) detection; read-out: HPK1 pSLP76 IC50
How it was run: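 Phospho-SLP76 (Ser376) in lysates measured by AlphaLISA for human Jurkat and by 19 h HTRF for mouse EL-4, giving % inhibition and IC50. Compounds applied 60 min before αCD3/αCD28 bead stimulation at 37 °C, lasting 15 min (Jurkat) or 30 min (EL-4).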

[2] = target: full-length human HPK1 (MAP4K1) (Homo sapiens (Human), UniProt Q92918); assay: HPK1 Kinase Assay (Biochemical Assay), ADP-Glo; conditions: GST-HPK1 3.2 nM, 10 μM ATP, MBP substrate, read-out: HPK1 enzymatic IC50
How it was run: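 ADP-Glo luminescence after a 120-min kinase reaction gave percent inhibition and IC50. The enzyme was Sf21-expressed N-terminal GST full-length human HPK1 at 3.2 nM in HEPES pH 7.5 buffer with MgCl2, DTT, Brij-35 and BSA.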

Chain of HPK1 (SLP76 phosphorylation at Ser376 in Jurkat and EL-4 cells) (Q92918 whole entry, looked up): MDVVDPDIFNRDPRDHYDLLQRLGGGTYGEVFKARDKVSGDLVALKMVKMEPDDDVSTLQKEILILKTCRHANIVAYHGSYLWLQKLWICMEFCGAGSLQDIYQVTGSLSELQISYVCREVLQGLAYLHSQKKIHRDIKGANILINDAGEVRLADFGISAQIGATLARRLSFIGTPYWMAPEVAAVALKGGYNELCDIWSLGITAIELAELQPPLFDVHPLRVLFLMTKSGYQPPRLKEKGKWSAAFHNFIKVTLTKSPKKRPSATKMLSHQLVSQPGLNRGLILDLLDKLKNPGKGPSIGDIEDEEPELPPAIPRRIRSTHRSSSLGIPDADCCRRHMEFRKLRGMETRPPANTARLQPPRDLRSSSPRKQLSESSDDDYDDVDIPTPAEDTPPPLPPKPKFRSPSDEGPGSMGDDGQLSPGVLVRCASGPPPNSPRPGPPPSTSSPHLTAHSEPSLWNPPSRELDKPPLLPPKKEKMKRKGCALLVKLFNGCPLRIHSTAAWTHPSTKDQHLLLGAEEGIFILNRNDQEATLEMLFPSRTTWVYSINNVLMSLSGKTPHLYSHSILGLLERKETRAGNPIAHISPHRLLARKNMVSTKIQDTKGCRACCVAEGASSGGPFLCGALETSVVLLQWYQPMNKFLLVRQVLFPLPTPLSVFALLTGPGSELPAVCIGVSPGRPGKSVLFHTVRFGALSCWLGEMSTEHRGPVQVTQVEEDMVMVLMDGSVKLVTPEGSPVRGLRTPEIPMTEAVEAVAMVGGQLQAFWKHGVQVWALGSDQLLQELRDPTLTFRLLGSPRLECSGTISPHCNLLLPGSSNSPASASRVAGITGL
Chain of full-length human HPK1 (MAP4K1) (Q92918 whole entry): as the sequence (Q92918 whole entry, looked up) above

Cc1c(N2CCc3cnc(Nc4ccc(Cn5ccnn5)cc4)nc3C2)cnc2c1NCCO2 [Example 183, 7-{8-methyl-1H,2H,3H-pyrido[2,3-b][1,4]oxazin-7-yl}-N-{4-[(1H-1,2,3-triazol-1-yl)methyl]phenyl}-5H,6H,7H,8H-pyrido[3,4-d]pyrimidin-2-amine]
IC50 [1]: < 500 nM | IC50 [2]: < 100 nM

Cc1c(N2CCc3cnc(Nc4ccc(Cn5nccn5)cc4)nc3C2)cnc2c1NCCO2 [Example 185, 7-{8-methyl-1H,2H,3H-pyrido[2,3-b][1,4]oxazin-7-yl}-N-{4-[(2H-1,2,3-triazol-2-yl)methyl]phenyl}-5H,6H,7H,8H-pyrido[3,4-d]pyrimidin-2-amine]
IC50 [1]: < 500 nM | IC50 [2]: < 100 nM

Cc1c(N2CCc3cnc(Nc4ccc(C(C)(C)S(C)(=O)=O)cc4)nc3C2)cnc2c1NCCO2 [Example 186, N-[4-(2-methanesulfonylpropan-2-yl)phenyl]-7-{8-methyl-1H,2H,3H-pyrido[2,3-b][1,4]oxazin-7-yl}-5H,6H,7H,8H-pyrido[3,4-d]pyrimidin-2-amine]
IC50 [1]: 500 to 1000 nM | IC50 [2]: < 100 nM

Cc1c(N2CCc3cnc(Nc4ccc(Cn5cccn5)cc4)nc3C2)cnc2c1NCCO2 [Example 187, 7-{8-methyl-1H,2H,3H-pyrido[2,3-b][1,4]oxazin-7-yl}-N-{4-[(1H-pyrazol-1-yl)methyl]phenyl}-5H,6H,7H,8H-pyrido[3,4-d]pyrimidin-2-amine]
IC50 [1]: < 500 nM | IC50 [2]: < 100 nM

Cc1c(N2CCc3cnc(Nc4ccc(CN5CCOC5=O)cc4)nc3C2)cnc2c1NCCO2 [Example 188, 3-({4-[(7-{8-methyl-1H,2H,3H-pyrido[2,3-b][1,4]oxazin-7-yl}-5H,6H,7H,8H-pyrido[3,4-d]pyrimidin-2-yl)amino]phenyl}methyl)-1,3-oxazolidin-2-one]
IC50 [1]: < 500 nM | IC50 [2]: < 100 nM

Cc1c(N2CCc3cnc(Nc4ccc(CC(=O)N(C)C)cc4)nc3C2)cnc2c1NCCO2 [Example 189, N,N-dimethyl-2-{4-[(7-{8-methyl-1H,2H,3H-pyrido[2,3-b][1,4]oxazin-7-yl}-5H,6H,7H,8H-pyrido[3,4-d]pyrimidin-2-yl)amino]phenyl}acetamide]
IC50 [1]: < 500 nM | IC50 [2]: < 100 nM

Cc1c(N2CCc3cnc(Nc4ccc(CS(C)(=O)=O)c(F)c4)nc3C2)cnc2c1NCCO2 [Example 190, N-[3-fluoro-4-(methanesulfonylmethyl)phenyl]-7-{8-methyl-1H,2H,3H-pyrido[2,3-b][1,4]oxazin-7-yl}-5H,6H,7H,8H-pyrido[3,4-d]pyrimidin-2-amine]
IC50 [1]: < 500 nM | IC50 [2]: < 100 nM

Cc1c(N2CCc3cnc(Nc4cccc(Cn5ccnc5)c4)nc3C2)cnc2c1NCCO2 [Example 191, N-{3-[(1H-imidazol-1-yl)methyl]phenyl}-7-{8-methyl-1H,2H,3H-pyrido[2,3-b][1,4]oxazin-7-yl}-5H,6H,7H,8H-pyrido[3,4-d]pyrimidin-2-amine]
IC50 [1]: < 500 nM | IC50 [2]: < 100 nM
